Test results taken from patent US20060068455A1, “GABA detection methods and applications” (priority 2004, published 2006).

System: rat brain tissue
Assay: Real-time fluorescence detection of Ca^2+-dependent GABA release from rat neural tissue on GABA-T/SSADH sensor
Assay type: cell-based
Description: Adult Sprague-Dawley rats about 160 grams each were injected with an overdose of Nembutal. The brains or spinal cords were removed and washed several times with PBS and then embedded with 5% low melting temperature agarose (NuSieve® GAG® agarose, FMC BioProducts, Me.). The embedded brains or spinal cords were cut with a Vibratome (VT10003, LEICA Microsystems, Germany) in 300 μm tissue sections. Each tissue section was placed on a GABA-T/SSADH fluorometric silica glass sensor and then GABA released from the tissue sections were measured with Fluoroskan Ascent (Labsystems, Finland).
The silica glass sensors of the present invention may be used to assay neural tissue and agents which affect neural tissue. […] Neural tissue, […], was cultured on GABA-T/SSADH sensors prepared inside tissue culture vessels. […] Therefore, GABA release is stimulated by Ca^2+.
The effect of various agents on GABA release in rat neural tissue were assayed in real-time with a GABA-T/SSADH sensor. The agents tested were 2-APB (a cell-permeable IP3 receptor antagonist), Thapsigargin (a blocker of store-specific Ca^2+-ATPase), Ryanodine and caffeine (increase internal Ca^2+ level), and KN-93 (CAM kinase II inhibitor).
FIGS. 10 and 11 show the effect of Thapsigargin and Ryanodine on Ca^2+-dependent GABA release, respectively. Therefore, the silica glass sensors of the present invention may be used for assaying the effect of various agents on cells and tissues cultured thereon.

SMILES	less GABA release (75 μM 2-APB without 10 mM CaCl2 compared with 75 μM 2-APB with 10 mM CaCl2, FIG. 9)	effect on Ca^2+-dependent GABA release (75 μM 2-APB, rat neural tissue, FIG. 9)	GABA release versus controls (100 mM Ca^2+, rat brain tissue, FIG. 8)
NCCOB(c1ccccc1)c1ccccc1 [2-APB]	about 41.9%	inhibits Ca^2+-dependent GABA release	
[Ca+2].[Cl-].[Cl-] [Ca^2+]			released more GABA than controls
